Laboratory results as given in US9908863B2, “Piperidinylcarbazoles” (Merck Patent GmbH, priority 2013, dated 2018).
Structures can show the parent of a compound that is named as a salt. Where two headings read alike, the source gives them in different places.

What was measured:
[1] = test system: Chloroquine/Pyrimethamine resistant Plasmodium falciparum K1; experiment: In vitro sensitivity assay: Plasmodium falciparum by 3H-hypoxanthine incorporation; type: cell-based; details: read-out: IC50 K1 in vitro
Procedure: Biological Test 1: In Vitro Sensitivity Assays: Plasmodium falciparum by ^3H-Hypoxanthine Incorporation.
The strain used for this assay is the Chloroquine/Pyrimethamine resistant Plasmodium falciparum K1 and drugs such as Chloroquine (10 mg/mL stock; start concentration 1000 ng/mL) and Artemisinine (Qinghaosu) (5 mg/mL stock; start concentration 10 ng/mL) were used as standards. Human red blood cells were used as host cells and the activity was measured using a ^3H-hypoxanthine incorporation assay.
Into a Costar™ 96-well microtitre plates, 100 μL of medium (RPMI 1640 without hypoxanthine 10.44 g/L, HEPES 5.94 g/L, Albumax® 5 g/L, Neomycin 10 mL/L, NaHCO3 2.1 g/L) were added to the wells of row containing drugs available from stock solutions of 10 mg/mL in DMSO (compounds were kept at −20° C. Since DMSO is toxic, care had to be taken not to exceed a final concentration of 0.5% DMSO). Then 100 μL of medium were added at rt to all wells of the plate. By means of a 12-well multi-pipette serial drug dilutions were prepared. A serial dilution factor of 1:2 is thus obtained. One row of wells without drugs served as controls. Next 100 μL of medium+washed human red blood cells A+(RBC) was added to the last 4 wells of the first row; these columns serve as background controls (that may be caused by 3H-hypoxanthine incorporation into RBC without the parasite). Into the remaining wells, 100 μL of medium+RBC+P. falciparum mix was added. The plates were placed for 48 h into a chamber at 37° C. gassed with a 4% CO2, 3% O2, 93% N2 mix. Finally 50 μL of medium+3H-hypoxanthine [(500 μL ^3H-hypoxanthine stock+500 μL EtOH+49 mL medium (0.5 μCi)] was added to each well and the plates were put back at 37° C. for 24 h into the chamber and gassed with a 4% CO2, 3% O2, 93% N2 mix. The plates were then read using the Cell Harvester and the data were transferred into a graphic program (Excel) and are evaluated to determine the IC50 by linear interpolation.

[2] = test system: Plasmodium berghei, (GFP ANKA strain); experiment: Plasmodium berghei acute in vivo model; details: NMRI mice, 50 mg/kg/day i.p., 4 daily doses; for decrease of parasitemia: day 4, relative to untreated control group; for Mean Survival Days: survival monitored up to 30 days
Procedure: Biological Test 2: Plasmodium berghei Acute In Vivo Model.
For this study Plasmodium berghei, (GFP ANKA strain) was used as parasite strain and drugs such as Chloroquine (Sigma C6628) Artemisinin (Sigma 36, 159-3) were used as positive controls.
For the assay a donor mouse with approximately 30% parasitaemia, heparinised blood (containing 50 μL of 200 μ/mL Heparin) was taken and diluted in physiological saline to 10^8 parasitized erythrocytes per mL. An aliquot (0.2 mL) of this suspension was injected intravenously (i.v.) into experimental groups of 3 mice (NMRI mice, females, 20-22 g), and a control group of 3 mice. The mice were studied in a standard macrolon cages type II at 22° C. and 60-70% relative humidity, and were fed with special pellets (PAB45—NAFAG 9009, Provimi Kliba A G, CH-4303 Kaiseraugst, Switzerland), water ad libitum. 4 hours post-infection—the experimental groups were treated with a single dose i.p of the tested drug. The dosage was 50 mg/kg/day and the drug concentration (DMSO 10%) was adjusted so that 0.1 mL/10 g was injected. In a similar manner after 24, 48 and 72 hours post-infection—the experimental groups were treated with a single daily dose i.p. Finally 24 hours after the last drug treatment, 1 μL tail blood was taken and dissolved in 1 mL PBS buffer. Parasitaemia was determined with a FACScan (Becton Dickinson) by counting 100'000 red blood cells. The difference between the mean value of the control group and those of the experimental groups was then calculated and expressed as a percent relative to the control group (=activity). The survival of the animals was monitored up to 30 days and mice surviving for 30 days were checked for parasitaemia and subsequently euthanised. A compound is considered curative if the animal survives to day 30 post-infection with no detectable parasites. The result is expressed as 1) reduction of parasitaemia on day 4 in % as compared to the untreated control group, and 2) mean survival of the group.
B. Franke-Fayard et al., Mol. Biochem. Parasitol., 137(1),23-33, 2004

[3] = test system: P falciparum PF3D/^0087/N9; experiment: In vivo efficacy in a murine model of falciparum-malaria (4-day test); design: species or system Plasmodium falciparum
Description: Biological Experiment 5: In Vivo Efficacy Against P falciparum PF3D/^0087/N9 for the compound No. 6 Described in Example 6 • In vivo activity in a murine model of falciparum-Malaria Angulo-Barturen I, Jimenez-Diaz M B, Mulet T, Rullas J, Herreros E, et al. (2008) A Murine Model of falciparum-Malaria by In Vivo Selection of Competent Strains in Non-Myelodepleted Mice Engrafted with Human Erythrocytes. PLoS ONE 3(5): e2252. doi:10.1371/journal.pone.0002252.
This study measures the therapeutic efficacy of compound no. 6 against Plasmodium falciparum growing in peripheral blood of NODscidIL2Rynull mice engrafted with human erythrocytes. The antimalarial efficacy of compound no. 6 is assessed using a “4-day test”.
The parameters of efficacy estimated in the study are a) the dose of compound no. 6 in mg·kg-1 that reduces parasitemia at day 7 after infection by 90% with respect to vehicle-treated mice (parameter denoted as ED90) and b) the estimated average daily exposure in whole blood of compound no. 6 necessary to reduce P. falciparum parasitemia in peripheral blood at day 7 after infection by 90% with respect to vehicle-treated mice (parameter used to measure the potency of the compound and denoted as AUCED90).

[4] = test system: P. falciparum strain NF54; experiment: P. falciparum growth assay ([3H] hypoxanthine incorporation); type: cell-based; details: Plasmodium falciparum, NF54, read-out: IC50 NF54
Procedure: • Cultivation of P. falciparum:
P. falciparum strain NF54 was obtained from the Research and Reference Reagent
Resource Center (MR4) (Manassas, Va.). The two strains were maintained in vitro by a modification of the method of Trager and Jensen. Cultures were maintained in A positive (A+) human erythrocytes suspended at 5% hematocrit in complete medium. 5 g albumax II (Gibco-Invitrogen, Cat No#11021037), 2.5 mg gentamicin (Sigma Aldrich), 25 mM HEPES (Invitrogen), 5 mg hypoxanthine (Sigma), and 1 L of RPMI 1640 (Invitrogen, Cat No#11875085). Cultures were grown in 100 mm petri-dishes (BD Falcon) at a volume of 15 mL and were kept in a standard gas environment of 4% CO2 and 3% 02 at temperature 37° C. in a tri-gas incubator (Cat#3131, Thermo Scientific Forma Series II Water Jacketed). Parasite growth and morphology were observed daily using thin smears at 100× (oil immersion) magnification following staining with Geimsa stain. • P. falciparum growth assay:
The protocol assesses the compound efficacy against the growth of P. falciparum in-vitro.
Parasite growth was detected in assay by the traditional [3H] hypoxanthine incorporation assay as previously described by Desjardins and colleagues (Antimicrob. Agents Chemother., 16(6), 710, 1979). To perform the [3H] hypoxanthine incorporation assay, the new antimalarial agents were serially diluted 1:1 into hypoxanthine-free complete medium to a final volume of 100 μL (final antimalarial agent concentration range, 10,000 nM to 4.8 nM may change in special case) in 96 well sterile cell culture plates. […] All cultures used in the study are albumax II adopted. The microtiter plates were incubated in chamber in a standard gas environment at 37° C. for 72 h. After 48 h of incubation and prior to addition of 50 μL (0.5 μCi/well) 3H-Hypoxanthine (specific activity, 20 Ci/mmol, Conc. 1.0 mCi/ml; American Radiolabeled Chemicals, Inc., St. Louis, Mo.), culture growth was assessed by making the smears that ensures the culture has grown in % p and assay plate is further incubated for 24 h. Following the incubation period, the plates were harvested with a FilterMate cell harvester (Perkin Elmer) onto unifilter-96 GF/B plates, washed with distilled water to remove excess radiochemical and plates were kept for drying 37° C. overnight or 60° C. for 1 h. 50 μL of Microscint scintillation cocktail (Microscint-High Efficiency LSC-Cocktail; Perkin Elmer) added in the unifilter-96 GF/B plates and kept for 15-20 min. The plates were counted in a Top Count NXT microplate scintillation and luminescence counter (Perkin Elmer). The mean values for [3H]hypoxanthine incorporation in parasitized control and non-parasitized control erythrocytes were calculated.
Assay data were analyzed using Graph pad prism ver.5 software. A variable sigmoid dose response curve is plotted keeping log concentrations at X-axis and % inhibition at Y-axis.

[5] = Erythrocyte, P. falciparum K1 strain in human red blood cells, 3H-hypoxanthine incorporation

Q: What does the source list for `O[C@H]1CNCC[C@@H]1n1c2ccc(Cl)cc2c2cc(Cl)ccc21` [Compound 6, (3S,4S)-4-(3,6-Dichloro-carbazol-9-yl)-piperidin-3-ol hydrochloride salt]?
A: IC50 ([1]; K1, Erythrocyte): 10 nM; decrease of parasitemia [2]: 99.8%; Mean Survival Days [2]: 30 days; ED90 ([3]; dose reducing parasitemia at day 7 after infection by 90% vs vehicle-treated mice, NODscidIL2Rynull mice engrafted with human erythrocytes): 22.5 mg/kg; AUCED90 ([3]; estimated average daily exposure in whole blood needed to reduce parasitemia at day 7 by 90% vs vehicle-treated mice): 28.5 μg · h · ml^−1 · day^−1; IC50 [4]: 40.2 nM

Q: For `O[C@@H]1CNCC[C@H]1n1c2ccc(Cl)cc2c2cc(Cl)ccc21` [Compound 7, (3R,4R)-4-(3,6-Dichloro-carbazol-9-yl)-piperidin-3-ol hydrochloride salt], which IC50 ([1]; K1, Erythrocyte) is on record?
A: 9 nM

Q: What about the decrease of parasitemia [2] of the same compound?
A: 100%

Q: And the “Mean Survival Days” value [2]?
A: 30 days

Q: And the IC50 [4]?
A: 41.2 nM

Q: Which IC50 ([1]; K1, Erythrocyte) does the source give for `O[C@H]1CNCC[C@@H]1n1c2ccc(Cl)cc2c2cc(Cl)ccc21` (racemic) [Compound 5, Trans-4-(3,6-Dichloro-carbazol-9-yl)-piperidin-3-ol hydrochloride salt] here?
A: 9 nM

Q: And the IC50 [4]?
A: 109 nM

Q: How did the IC50 [1, 5] turn out when `CC(C)(C)OC(=O)N1CC[C@H](n2c3ccc(F)cc3c3cc(Cl)ccc32)[C@@H](O)C1` (racemic) [Compound 1, trans-4-(3-Chloro-6-fluoro-carbazol-9-yl)-3-hydroxy-piperidine-1-carboxylic acid tert-butyl ester] was run?
A: 315 nM

Q: With `O[C@@H]1CNCC[C@H]1n1c2ccccc2c2ccccc21` [Compound 15, (3R,4R)-4-Carbazol-9-yl-piperidin-3-ol hydrochloride salt] as the compound, how does the IC50 ([1]; K1, Erythrocyte) read?
A: 383 nM

Q: Which IC50 [1, 5] does the source give for `O[C@H]1CCNC[C@@H]1n1c2ccc(Cl)cc2c2cc(Cl)ccc21` (racemic) [Compound 8, trans-3-(3,6-dichloro-9H-carbazol-9-yl)piperidin-4-ol] here?
A: 781 nM

Q: Which IC50 ([1]; K1, Erythrocyte) does the source give for `O[C@H]1CNCC[C@@H]1n1c2ccccc2c2ccccc21` [Compound 16, (3S,4S)-4-Carbazol-9-yl-piperidin-3-ol hydrochloride salt] here?
A: 364 nM

Q: How did the IC50 ([1]; K1, Erythrocyte) turn out when `Fc1ccc2c(c1)c1cc(Cl)ccc1n2[C@H]1CCNC[C@H]1F` [Compound 13, 3-Chloro-6-fluoro-9-((3R,4S)-3-fluoro-piperidin-4-yl)-9H-carbazole hydrochloride salt] was run?
A: 886 nM

Q: With `O[C@@H]1CNCC[C@H]1n1c2ccc(F)cc2c2cc(Cl)ccc21` [Compound 4, (3R,4R)-4-(3-Chloro-6-fluoro-carbazol-9-yl)-piperidin-3-ol hydrochloride salt] as the compound, how does the IC50 ([1]; K1, Erythrocyte) read?
A: 3 nM

Q: `O[C@@H]1CNCC[C@H]1n1c2ccc(F)cc2c2cc(F)ccc21` [Compound 10, (3R,4R)-4-(3,6-Difluoro-carbazol-9-yl)-piperidin-3-ol hydrochloride salt] was tested. Which IC50 ([1]; K1, Erythrocyte) did it give?
A: 33 nM

Q: Which IC50 ([1]; K1, Erythrocyte) does the source give for `O[C@H]1CNCC[C@@H]1n1c2ccc(F)cc2c2cc(F)ccc21` [Compound 9, (3S,4S)-4-(3,6-Difluoro-carbazol-9-yl)-piperidin-3-ol hydrochloride salt] here?
A: 16 nM

Q: What about the IC50 [4] of the same compound?
A: 307 nM

Q: With `O[C@H]1CCN(C2CCCCC2)C[C@@H]1n1c2ccc(Cl)cc2c2cc(Cl)ccc21` (racemic) [Compound 14] as the compound, how does the IC50 [1, 5] read?
A: 13 nM

Q: How did the IC50 ([1]; K1, Erythrocyte) turn out when `O[C@H]1CNCC[C@@H]1n1c2ccc(F)cc2c2cc(Cl)ccc21` [Compound 3, (3S,4S)-4-(3-Chloro-6-fluoro-carbazol-9-yl)-piperidin-3-ol hydrochloride salt] was run?
A: 3 nM
